Entries after “also recorded” stand apart in the source; their conditions may differ.
Columns and labels:
[1] = tested on: spinal cords of C57BL/6 females with EAE; test: Spinal cord neuropathology (immunohistochemistry) in EAE; format: in vivo, mouse; conditions: vs vehicle treated EAE
Procedure: (§1) Histological Preparation. Mice were exposed to a lethal dose of isoflurane and perfused transcardially with ice-cold 1×PBS for 8-15 min, followed by 10% formalin for 10-15 min. Spinal cords and brains were dissected and submerged in 10% formalin overnight at 4° C., followed by 30% sucrose in PBS for 24 h. Tissues were embedded in […] solution for cryostat sectioning then post-fixed overnight in 10% formalin and cryoprotected in 30% sucrose. The embedded tissues were stored in −80° C. after flash frozen in dry ice. 40 μm thick free-floating spinal cord cross-sections, and sagittal brain sections were obtained with a microtome b cryostat (model HM505E) at −20° C. Tissues were collected serially and stored in 1×PBS with 1% sodium azide in 4° C. until immunohistochemistry.
(§2) Immunofluorescence. Prior to histological staining, […] free-floating sections were thoroughly washed with 1×PBS to remove residual sodium azide. In the case of anti-MBP labeling, tissue sections were processed with an additional 1 hour incubation with 5% glacial acetic acid in 100-proof ethanol at room temperature (RT). After washing tissue sections were permeabilized with 0.3% TritonX-100 and 2% normal goat serum in 1×PBS for 30 minutes at room temperature and blocked with 10% normal goat serum in 1×PBS for 1 hour. Tissues were then incubated with primary antibodies overnight in 4° C. The following primary antibody (Ab) were used: Rat anti-MBP (Millipore) at 1:1000 dilutions, Rabbit anti-NF200 (Sigma Aldrich) at 1:750 dilutions, Rabbit anti-beta-APP (Life Technologies) at 1:200 dilutions, Mouse anti-NeuN at 1:1000 dilutions (Millipore), Rabbit anti-PSD95, and Rabbit anti-Synapsin 1 at 1:500 dilutions (Millipore), and Rat anti-CD45 at 1:1500 dilutions (Millipore). The next day tissues were washed and incubated with secondary antibodies conjugated to Cy5 or Cy3 (Millipore) for 1 hour at room temperature. A nuclear stain DAPI (2 ng/mL; Molecular Probes) was added 10 minutes prior to final washes after secondary Ab incubation. Sections were mounted on slides, allowed to semi-dry, and cover slipped in fluoromount G (Fisher Scientific). IgG-control experiments were performed for all primary Ab, and only non-immunoreactive tissues under these conditions were analyzed.
(§3) Chromagen Immunohistochemistry. […] Tissues were then incubated with primary antibodies overnight in 4° C. The following primary antibodies were used: Rat anti-CD3 at 1:2000 dilutions (BD Pharmingen), anti-Calbindin D28K at 1:1000 dilutions (Millipore), and Rabbit anti-Iba1 at 1:10000 dilutions (Wako Chemicals), were added for 2 hour at room temperature, and then placed in 4° C. overnight. Tissue sections then followed with secondary Ab labeling at 1:1000 dilutions (Vector labs) for 1 hour at room temperature and then with Avidin-Biotin Conjugation solution (Vector Labs) for 1 hour at room temperature. Tissue sections were treated with DAB peroxidase substrate (Vector labs) according to manufacturer instructions. IgG-control experiments were performed for all primary Ab, and only non-immunoreactive tissues under these conditions were analyzed.
(§4) Microscopy and Quantification. Three spinal cord cross-sections at the C5-12 level from each mouse (n=3-6) were captured under microscope at 10× magnification. To quantify demyelination in the spinal cord and cerebellum, white matter was manually delineated on the basis of DAPI staining, and MBP staining intensity was calculated and reported in the sampled area. Axonal damage was assessed by counting beta-APP^+ cells in a confocal 10× microscope in spinal cord. Axonal densities were calculated by counting the number of NF200^+ or NeuN^+ neuronal cells in a 10× confocal image in the sampled area of the captured tissue section. Cerebellar Purkinje (Calbindin^+) cells were manually counted using a brightfield 10× microscope over the entire sagittal cerebellum. […]

[2] = tested on: cerebrum and cerebellum of female C57BL/6 mice with EAE; test: Cerebral and cerebellar neuropathology (gray and white matter) in EAE; format: in vivo, mouse; conditions: 30 mg/kg every other day; vs Vehicle EAE
Procedure: as §1, §2, §3, §4

[3] = 10 mg/kg every other day in miglyol, EAE day 60
[4] = 30 mg/kg every other day in miglyol

For `Oc1ccc(C2(c3ccccc3F)CCC(F)(F)CC2)cc1` [AC-186], the “Axonal densities / axon numbers (NF200), spinal cord” value [1, 3] was “Neuroprotective effects; also recorded: significantly more axon numbers”, the “Myelin staining intensity (MBP), spinal cord” value [1, 3] was “a trend for somewhat higher MBP staining intensity” and the “beta-APP expression (axonal damage), spinal cord” value [1, 3] was “Neuroprotective effects; also recorded: a trend of less beta-APP staining”. The “CD3 stained cells (T lymphocytes), spinal cord” value ([1]; 10 mg/kg in miglyol) was “neither AC-186 dose affected levels of CD3 staining; also recorded: no differences in the number of CD3 stained cells”, the “CD45 immunoreactivity (all immune cells), spinal cord” value ([1]; 10 mg/kg in miglyol) was “reduced CD45 staining; also recorded: a reduction of CD45 expression” and the “Iba-1 globoid cells (macrophage like cells), spinal cord” value ([1]; 10 mg/kg in miglyol) was “reduced Iba-1 globoid cell staining; also recorded: a significant reduction in the number of Iba-1 stained cells with globoid morphology”. The “Axonal densities / axon numbers (NF200), spinal cord” value [1, 4] was “significantly preserved axon numbers; also recorded: sparing of axons and myelin; also recorded: significantly more axon numbers”, the “Myelin staining intensity (MBP), spinal cord” value [1, 4] was “a trend for sparing myelin; also recorded: observed as significant; also recorded: a trend for somewhat higher MBP staining intensity” and the “beta-APP expression (axonal damage), spinal cord” value [1, 4] was “reduced axonal damage; also recorded: significantly less expression of beta-APP”. The “CD3 stained cells (T lymphocytes), spinal cord” value ([1]; 30 mg/kg in miglyol) was “neither AC-186 dose affected levels of CD3 staining; also recorded: no differences in the number of CD3 stained cells”, the “CD45 immunoreactivity (all immune cells), spinal cord” value ([1]; 30 mg/kg in miglyol) was “reduced CD45 staining; also recorded: lowering CD45 and Iba-1; also recorded: a reduction of CD45 expression” and the “Iba-1 globoid cells (macrophage like cells), spinal cord” value ([1]; 30 mg/kg in miglyol) was “reduced Iba-1 globoid cell staining; also recorded: lowering CD45 and Iba-1; also recorded: a significant reduction in the number of Iba-1 stained cells with globoid morphology”. The “Axonal densities (NF200), cerebellar white matter” value [2] was “a protective effect; also recorded: significantly more axon numbers”, the “Axonal densities (NF200), cerebral white matter (splenium of the corpus callosum)” value [2] was “a protective effect; also recorded: significantly more axon numbers” and the “Calbindin+ Purkinje cells, cerebellar gray matter” value [2] was “prevented; also recorded: a protective effect; also recorded: higher numbers of Calbindin^+ Purkinje cells”. For the same compound, the “Myelin staining intensity (MBP), cerebellar white matter” value [2] was “a protective effect; also recorded: higher MBP staining intensity”, the “Myelin staining intensity (MBP), cerebral white matter (splenium of the corpus callosum)” value [2] was “a protective effect; also recorded: a trend for higher MBP staining intensity” and the “NeuN+ neuronal cells, cerebral cortex gray matter” value [2] was “prevented; also recorded: a protective effect; also recorded: higher numbers of NeuN^+ cortical neurons”. The “PSD-95 staining, cerebellar gray matter (molecular layer)” value [2] was “prevented; also recorded: a protective effect; also recorded: greater PSD-95 and Synapsin1 staining”, the “PSD-95 staining, cerebral cortex gray matter” value [2] was “prevented; also recorded: a protective effect; also recorded: greater PSD-95 staining” and the “Synapsin1 staining, cerebellar molecular layer” value [2] was “a protective effect; also recorded: greater PSD-95 and Synapsin1 staining”. For the same compound, the “Synapsin-1 staining, cerebral cortex gray matter” value [2] was “No effect was observed; also recorded: no significant differences in Synapsin-1 staining”.

Source: US11628146B2, “Estrogen receptor ligand treatment for neurodegenerative diseases” (The Regents of the University of California, priority 2014, dated 2023)
